Experimental data published in patent US20240299572A1, “NITROGEN-CONTAINING COMPOUND, CONJUGATE CONTAINING SAID COMPOUND, AND APPLICATION THEREOF” (SHANGHAI DE NOVO PHARMATECH CO., LTD., priority 2021, published 2024).

Legend:
TLR8 = biological target: T1, TLR8 (Homo sapiens, UniProt Q9NR97); experiment: Cell activity assay of TLR8 (HEK-BLUE-hTLR8, SEAP reporter, Quanti-Blue); type: cell-based; settings: HEK-BLUE-hTLR8 cells, 24 hours
T1 construct: host or cells: HEK293 (HEK-BLUE-hTLR8)
T1 sequence (Q9NR97 27-1041): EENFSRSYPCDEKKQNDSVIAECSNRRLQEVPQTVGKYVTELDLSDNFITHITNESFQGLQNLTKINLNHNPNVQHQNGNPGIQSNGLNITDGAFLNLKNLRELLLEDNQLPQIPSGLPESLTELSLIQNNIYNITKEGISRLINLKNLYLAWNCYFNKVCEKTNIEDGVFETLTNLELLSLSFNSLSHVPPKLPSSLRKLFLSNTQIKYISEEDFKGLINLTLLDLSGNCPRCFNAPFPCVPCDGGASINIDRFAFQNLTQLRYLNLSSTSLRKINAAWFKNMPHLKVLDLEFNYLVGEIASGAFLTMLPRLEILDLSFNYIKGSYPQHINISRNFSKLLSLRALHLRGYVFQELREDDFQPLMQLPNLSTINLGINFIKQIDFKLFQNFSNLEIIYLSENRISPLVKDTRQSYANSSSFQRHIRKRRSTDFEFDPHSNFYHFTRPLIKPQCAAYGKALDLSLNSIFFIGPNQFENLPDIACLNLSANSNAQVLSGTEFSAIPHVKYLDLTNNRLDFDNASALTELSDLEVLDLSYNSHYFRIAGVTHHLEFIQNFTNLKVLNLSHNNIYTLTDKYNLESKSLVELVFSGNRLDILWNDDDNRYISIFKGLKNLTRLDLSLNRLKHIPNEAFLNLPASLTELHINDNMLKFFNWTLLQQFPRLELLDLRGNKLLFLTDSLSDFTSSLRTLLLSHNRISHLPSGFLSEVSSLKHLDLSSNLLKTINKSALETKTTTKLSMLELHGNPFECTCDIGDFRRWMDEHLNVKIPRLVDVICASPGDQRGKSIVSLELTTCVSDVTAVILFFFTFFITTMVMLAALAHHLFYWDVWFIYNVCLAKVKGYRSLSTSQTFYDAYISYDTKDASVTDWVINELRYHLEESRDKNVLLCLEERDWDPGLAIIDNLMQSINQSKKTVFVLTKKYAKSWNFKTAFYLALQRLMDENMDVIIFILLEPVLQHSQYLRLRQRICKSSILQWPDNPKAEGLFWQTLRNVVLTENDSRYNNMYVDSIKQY
Description: (§1) In this experiment, TLR7 and TLR8 bioactivity assays of the compound of formula I were determined using a cellular test. This method was performed in human embryonic kidney cells (HEK293) expressing TLR family members such as TLR4, TLR7, TLR8, or TLR9. TLR agonist activates TLR, causing downstream NF-KB activation, thus activating the secreted embryonic alkaline phosphatase (SEAP) reporter gene. Quanti-Blue (InvivoGen) reagent was used to assay the SEAP activity, thus reflecting the activity of TLR7 and TLR8 agonists.
(§2) The detailed experimental method is as follows:
HEK-BLUE-hTLR7 and HEK-BLUE-hTLR8 cell lines were purchased from Invivogen company and cultured in DMEM medium containing 4.5 g/L glucose (Sigma-Aldrich) and 10% fetal bovine serum under a condition of a temperature of 37° C., a humidity of 95%, and 5% CO2.
The test concentration of the compound ranged from 0.5 nM to 15 μM, with a total of 10 concentration gradients. TLR7 or TLR8 agonists with known activity were added thereto as positive controls, and 1 μL of DMSO as a negative control.
Cell treatment was as follows: The cells were removed from the incubator and centrifuged to remove the culture medium, resuspended in a T-150 flask with 10 mL of pre-warmed PBS. 12 mL of pre-warmed culture medium was added thereto, and the cells were pipetted gently up and down, and counted under a microscope. A single cell suspension of 200,000 cells/mL was prepared immediately with culture medium, and 200 μL/well (40,000 cells/well) of the cell suspension was added to a 96-well plate. The final concentration of DMSO was 0.5%.
The compound was added thereto, and the mixture was incubated in a 5% CO2 incubator at 37° C. for 24 hours.
20 μL/well of supernatant was pipetted into 180 μL of Quanti-Blue preheated to 37° C., and the mixture was incubated at 37° C. for 1.5 hours, and the absorbance (OD value) at 650 nm was measured with a spectrophotometer. The calculation formula for the agonistic effect is as follows: • Effect %=(average OD value of the administration group-average OD value of the DMSO group)/(average OD value of the positive drug group-average OD value of the DMSO group)×100 • The concentration-effect curves were fitted with Graphpad software, and EC50 was calculated. The test results are shown in Table 4 (A represents <100 nM, B represents 100 nM to 250 nM, C represents 250 nM to […], D represents >2 μM, / represents not tested).

TLR7 = biological target: T2, TLR7 (Homo sapiens, UniProt Q9NYK1); experiment: Cell activity assay of TLR7 (HEK-BLUE-hTLR7, SEAP reporter, Quanti-Blue); type: cell-based; settings: HEK-BLUE-hTLR7 cells, 24 hours
T2 construct: host or cells: HEK293 (HEK-BLUE-hTLR7)
T2 sequence (Q9NYK1 27-1049): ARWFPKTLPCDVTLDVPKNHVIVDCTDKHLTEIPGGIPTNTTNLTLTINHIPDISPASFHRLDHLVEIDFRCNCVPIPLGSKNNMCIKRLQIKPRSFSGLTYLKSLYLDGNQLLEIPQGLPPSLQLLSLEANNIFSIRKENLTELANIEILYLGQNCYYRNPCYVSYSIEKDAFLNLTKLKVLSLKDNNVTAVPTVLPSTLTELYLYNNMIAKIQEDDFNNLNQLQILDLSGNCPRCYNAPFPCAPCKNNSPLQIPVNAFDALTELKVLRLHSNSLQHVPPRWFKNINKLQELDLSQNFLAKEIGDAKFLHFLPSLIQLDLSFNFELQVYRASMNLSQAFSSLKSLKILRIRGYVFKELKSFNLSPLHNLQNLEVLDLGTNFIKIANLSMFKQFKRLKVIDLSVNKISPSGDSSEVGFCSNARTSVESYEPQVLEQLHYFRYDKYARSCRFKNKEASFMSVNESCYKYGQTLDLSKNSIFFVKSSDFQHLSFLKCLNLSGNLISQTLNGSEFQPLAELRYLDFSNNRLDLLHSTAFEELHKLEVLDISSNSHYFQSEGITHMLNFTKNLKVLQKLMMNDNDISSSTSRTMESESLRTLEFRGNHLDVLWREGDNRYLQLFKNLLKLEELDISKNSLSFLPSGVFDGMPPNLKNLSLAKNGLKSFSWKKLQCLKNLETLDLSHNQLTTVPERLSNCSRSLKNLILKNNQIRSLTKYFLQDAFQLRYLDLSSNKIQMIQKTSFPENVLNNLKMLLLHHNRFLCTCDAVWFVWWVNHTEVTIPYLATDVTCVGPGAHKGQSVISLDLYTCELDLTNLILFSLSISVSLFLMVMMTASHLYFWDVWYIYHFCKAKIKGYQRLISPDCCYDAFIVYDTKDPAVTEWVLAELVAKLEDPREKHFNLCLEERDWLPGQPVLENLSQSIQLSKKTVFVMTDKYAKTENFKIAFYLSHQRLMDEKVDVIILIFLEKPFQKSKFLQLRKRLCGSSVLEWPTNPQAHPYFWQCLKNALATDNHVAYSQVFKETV
Description: as §1, §2
HEK-BLUE-hTLR7 and HEK-BLUE-hTLR8 cell lines were purchased from Invivogen company and cultured in DMEM medium containing 4.5 g/L glucose (Sigma-Aldrich) and 10% fetal bovine serum under a condition of a temperature of 37° C., a humidity of 95%, and 5% CO2. […]
Cell treatment was as follows: The cells were removed from the incubator and centrifuged to remove the culture medium, resuspended in a T-150 flask with 10 mL of pre-warmed PBS. 12 mL of pre-warmed culture medium was added thereto, and the cells were pipetted gently up and down, and counted under a microscope. […]
20 μL/well of supernatant was pipetted into 180 μL of Quanti-Blue preheated to 37° C., and the mixture was incubated at 37° C. for 1.5 hours, and the absorbance (OD value) at 650 nm was measured with a spectrophotometer. […]

Row | SMILES | EC50 (TLR8) [nM] | EC50 (TLR7) [nM]
1 | CCCN(CCO)C(=O)C1=Cc2ccc(C3(C(=O)Nc4cncc(CN)c4)CC3)cc2N=C(N)C1 [Compound 12, 2-amino-8-(1-((5-(aminomethyl)pyridin-3-yl)carbamoyl)cyclopropyl)-N-(2-hydroxyethyl)-N-n-propyl-3H-benzo[b]azepine-4-carboxamide] | 100 to 250 | 
2 | CCCN(CCC)C(=O)C1=Cc2ccc(C(=O)Nc3cnc4c(c3)CNCC4)nc2N=C(N)C1 [Compound 1, 8-amino-N^6,N^6-di-n-propyl-N^2-(5,6,7,8-tetrahydro-1,6-naphthyridin-3-yl)-7H-pyrido[2,3-b]azepine-2,6-dicarboxamide] | 250 to 1000 | 
3 | CCCN(CCO)C(=O)C1=Cc2ccc(C(=O)Nc3cnc4c(c3)CNCC4)cc2N=C(N)C1 [Compound 13, 2-amino-N^4-(2-hydroxyethyl)-N^4-n-propyl-N^8-(5,6,7,8-tetrahydro-1,6-naphthyridin-3-yl)-3H-benzo[b]azepine-4,8-dicarboxamide] | 250 to 1000 | > 2000
4 | CCCN(CCC)C(=O)C1=Cc2c(F)cc(C3(C(=O)Nc4cnc5c(c4)CNCC5)CC3)cc2N=C(N)C1 [Compound 5, 2-amino-6-fluoro-N,N-di-n-propyl-8-(1-((5,6,7,8-tetrahydro-1,6-naphthyridin-3-yl)carbamoyl)cyclopropyl)-3H-benzo[b]azepine-4-carboxamide] | < 100 | 
5 | CCCN(CCC)C(=O)C1=Cc2ccc(C3(C(=O)Nc4cnc5c(c4)CNCC5)CC3)cc2N=C(N)C1 [Compound 3, 2-amino-N,N-di-n-propyl-8-(1-((5,6,7,8-tetrahydro-1,6-naphthyridin-3-yl)carbamoyl)cyclopropyl)-3H-benzo[b]azepine-4-carboxamide] | 100 to 250 | 
